Source: US20210222184A1, “COMPOSITIONS AND METHODS FOR EXPRESSING TRANSGENES USING REGULATORY ELEMENTS FROM RUBISCO ACTIVASE GENES” (DOW AGROSCIENCES LLC, priority 2018, published 2021)

Columns and labels:
[1] = test system: tagRFP/AAD12 reporter gene; assay: N. benthamiana leaf infiltration transient assay, RFP fluorescence; type: in vivo; conditions: for RFP Mean / RFP Median: Typhoon scanner fluorescence, leaves collected 6th day after infiltration, co-infiltrated with P19 silencing suppressor strain
Source text: Twenty four day old plants were used for infiltration.

GFP = GFP driven by AtUbi10/AtuOrf23 in both constructs; Typhoon scanner, 6th day after infiltration
Method: N. benthamiana plants were grown in the greenhouse under 16 hour photoperiod, 27° C./24° C. Twenty four day old plants were used for infiltration. The 3-4 top-most leaves were infiltrated using two Agrobacterium strains. The first strain was used in all infiltrations and carried the pDAB112236 construct expressing P19 silencing suppressor (Silhavy et al, (2002), EMBO J, 21, 3070-3080). The second Agrobacterium strain was either the experimental strain carrying pDAB116647 (SEQ ID NO:12) or a strain carrying the control pDAB110167 binary vector (FIG. 6). The pDAB110167 was identical to the pDAB116647 (SEQ ID NO:12) except that it had the reporter tagRFP/AAD12 fusion gene driven by the ScBV (Sugar Cane Bacilliform Virus) promoter fused to the Maize Streak Virus (MSV) 5′ leader engineered to contain maize Alcohol dehydrogenaseI (AdhI) gene intron 6 was paired with the StPinII terminator fragment (abbreviated ScBV/StPinII) to drive expression of the tagRFP/AAD12 reporter gene.
For N. benthamiana leaf infiltrations Agrobacterium strains containing either the pDAB116647 or pDAB110167 were mixed in equal proportions with an Agrobacterium strain that carried a plasmid that contained a gene encoding the P19 silencing suppressor Voinnet et al, (1999), Proc Natl Acad Sci USA, 96, 14147-14152. The mixing ratios were based on Optical Density (OD) readings. The density of all Agrobacterium cultures was adjusted to OD 2.0. After infiltration plants were maintained in a Conviron until leaves were collected on the 6th day after infiltration. Fluorescence data were collected using a Typhoon scanner from 30 leaves per construct with 3-5 one inch disks per leaf.
All samples from N. benthamiana were scanned on 3 channels: chlorophyll (488 nm blue laser, 670 nm BP30, 580 nm split), GFP (488 nm blue laser, 520 nm BP40, 580 nm split), and tagRFP (532 nm green laser, 580 nm BP30). The PhotoMultiplier Tube (PMT) setting used for N. benthamiana was 340/340/400. Background adjustments were made by subtracting calculated means for non-treated and empty vector controls from test treatment values. The values from each leaf were averaged to generate a mean fluorescence value.

[2] = test system: transgenic soybean plants; assay: 2,4-D herbicide tolerance of T1 transgenic soybean plants; type: in vivo, Glycine max; conditions: 2240 g ae/ha 2,4-D foliar
Source text: To assess T1 Soybean Herbicide Tolerance, T1 seed generated from self-pollination of single copy T0 events were planted in an artificial soil mix (MetroMix 360™) contained in 4-inch square pots. The T1 generation is a segregating population of the homozygous, hemizygous and non-transgenic plants. To eliminate the null individuals, the T1 population received a foliar application of 411 g active ingredient (ai)/ha glufosinate ammonium (Liberty® 280) when plants reached the first trifoliate leaf stage. Four days after application (DAA) surviving plants were sampled for molecular analysis to determine transgene zygosity and to confirm transgene copy number.
For each event, 8 homozygous and 8 hemizygous plants were sampled for protein analyses, and the following day (third trifoliate stage), half of the plants received a foliar application of 2240 g acid equivalent (ae)/ha 2,4-D dimethylamine (DMA) salt (Weedar® 64). The remaining plants received no spray application. Some plants were also sprayed with deionized water as a sprayer application control. In addition to the transformed events, the soybean variety, ‘Maverick’, was included in each treatment as a non-transformed control.
Foliar applications were made with a Mandel track sprayer set to deliver a spray solution at 187 L/ha to a spray area of 0.503 m^2 using an 8002E nozzle and a spray height of 18 inches above the plant canopy. Plant response to the 2,4-D application was evaluated at 5 hours after application (HAA) and 1, 7, and 14 DAA. Data were collected by assessment of visual injury and/or growth reduction as compared to untreated controls on a scale of 0% to 100% with 0% corresponding to no injury or growth reduction and 100% corresponding to complete plant death. Plants were maintained at 28° C./25° C. (day/night) under a 14 h photoperiod and sub-irrigated with water or fertilizer as needed.

Row | Substance | RFP Mean [1] | RFP Median [1] | GFP Mean (GFP) | GFP Median (GFP) | % Injury Mean 1 DAA ([2]; Hemi) [%] | % Injury Mean 5 HAA ([2]; Hemi) [%] | % Injury Mean 7 DAA ([2]; Hemi) [%] | % Injury Mean 14 DAA ([2]; Hemi) [%] | % Injury Mean 1 DAA ([2]; Homo) [%] | % Injury Mean 5 HAA ([2]; Homo) [%] | % Injury Mean 7 DAA ([2]; Homo) [%] | % Injury Mean 14 DAA ([2]; Homo) [%] | RFP fluorescence relative to the control (pDAB110167) construct ([1]; mean and median, p-Value <0.0001)
1 | pDAB110167: control binary vector; tagRFP/AAD12 driven by ScBV promoter, MSV 5' leader with AdhI intron 6, StPinII terminator [reference compound] | 24746396 | 21007653 | 166966846 | 148985095 | – | – | – | – | – | – | – | – | –
2 | pDAB116632: plasmid with GmRubAct promoter and 5' UTR fused to AAD12 gene, terminated with GmRubAct terminator | – | – | – | – | 18.13 | 15.0 | 4.38 | 3.75 | 12.0 | 8.67 | 2.33 | 1.67 | –
3 | pDAB116647: binary vector with tagRFP/AAD12 reporter gene driven by GmRubAct promoter, 5' UTR and terminator | 40982229 | 39409305 | 161956091 | 156309149 | – | – | – | – | – | – | – | – | significantly higher
